Entries after “also recorded” stand apart in the source; their conditions may differ.
Tested on: stem cell-like cells
Test: Stem cell-like cells detection (BrdU and p63 staining), stem cell deficiency model
Type: in vivo, mice
Conditions: Fosaprepitant 1 mg/mL (FOSA 1)
Text: Eight-week-old male mice C57BL6/N (Charles River, Calco, Italy) (WT mice, n=18) and Tac1-deficient B6.Cg-Tac1tm1Bbm/J (Jackson Laboratories, Bar Harbor, Me., USA) (TAC1-KO mice, n=18) were used in all experiments. TAC1-KO mice are homozygous null for the Tac1 gene. […] The corneal thickness and transparency as well as the corneal nerve length are similar to C57BL/6 mice [Barbariga M, Rabiolo A, Fonteyne P, Bignami F, Rama P, Ferrari G. The effect of aging on nerve morphology and substance P expression in mouse and human corneas. Investig Ophthalmol Vis Sci 2018; 59:5329-35. https://doi.org/10.1167/iovs.18-24707.]. Each animal was anesthetized with an intraperitoneal injection of tribromoethanol (250 mg/kg) and a topical anesthetic was applied to their ocular surface prior to the surgical procedure. Total disepithelization was performed based on the model previously described [Amirjamshidi H, Milani B Y, Sagha H M, Movahedan A, Shafiq M A, Lavker R M, et al. Limbal fibroblast conditioned media: A non-invasive treatment for limbal stem cell deficiency. Mol Vis 2011; 17:658], using a blunt spatula to scrap the entire corneal epithelium, including the limbus. Then, fluorescein staining was used to confirm complete removal of the corneal epithelium under the blue light of a slit-lamp microscope. After wounding, eyes were treated with ophthalmic moxifloxacin 1 time/day for 1 week to […]. Fourteen days after disepithelization mice were euthanized using carbon dioxide inhalation and subsequent cervical dislocation. Corneas were collected for immunostaining and western blot analysis. All experimental protocols were approved by the Animal Care and Use Committee of the Istituto di Ricovero e cura a Carattere Scientifico San Raffaele Scientific Institute, in accordance with the ARVO Statement for the Use of Animals in Ophthalmic and Vision Research.
To evaluate the pharmacological inhibition of Substance P, mice received 10 μL of Fosaprepitant topically (IVEMEND, Merck Sharp & Dohme Ltd., Hoddes-don, UK) in two different concentrations: 0.1 mg/mL (FOSA 0.1, n=5) or 1 mg/mL (FOSA 1, n=5) 4 times/day every 2 hours […]. Control animals received instead 10 μL of vehicle (PBS) (WT, n=5). The treatments started the same day that corneal disepithelization was performed.
Immediately after corneal dispepithelization, animals were intraperitoneally injected with […] (BrdU) (50 ug/g body weight, ab142567, Abcam) twice a day (9 a.m and 4 p.m), for 7 days. […] The images were acquired by epifluorescence microscope (Leica CTR5500; Leica Microsystems, Wetzlar, Germany) (20×) and analyzed with Image J software. A negative control using only the secondary antibody was used to establish a fluorescence threshold. […]

Question: What does the source list for `C[C@@H](O[C@H]1OCCN(Cc2nc(=O)n(P(=O)(O)O)[nH]2)[C@H]1c1ccc(F)cc1)c1cc(C(F)(F)F)cc(C(F)(F)F)c1` [Fosaprepitant, [3-{[(2R,3S)-2-[(1R)-1-[3,5-bis(trifluoromethyl)phenyl]ethoxy]-3-(4-fluorophenyl)morpholin-4-yl]methyl}-5-oxo-2H-1,2,4-triazol-1-yl]phosphonic acid]?
Answer: p63 content compared to WT: no differences; BrdU staining in the corneal epithelium compared to WT (p<0.01): significant increase; number of stem cell-like cells (epithelial stem cells) compared to WT (p<0.01): increase number; percentage of p63/BrdU colocalization compared to WT (p<0.05): increased percentage; also recorded: higher percentage
